Values of other authors in patent publication US8871800B2, “Statin and omega-3 fatty acids for reduction of Apo-B levels” (GlaxoSmithKline, LLC, priority 2006, dated 2014).

What was measured:
[1] = test system: obese, insulin-resistant men with dyslipidemia; conditions: atorvastatin monotherapy 40 mg/day, 6 weeks
[2] = test system: patients with hyperlipemia; conditions: atorvastatin monotherapy 10 mg/day, 5 weeks; compared to baseline
[3] = test system: patients with familial hypercholesterolemia; conditions: monotherapy (6 g/day Omacor or 40 mg/day lovastatin), 6 weeks
[4] = test system: patients with hypercholesterolemia; conditions: lovastatin monotherapy 40 mg/day, 6 weeks

SMILES | Apo-B levels [1] | Apo-B levels [2] | HDL-C levels [2] | LDL-C levels [2] | triglyceride levels [2] | Apo-B levels [3] | Apo-B levels [4] | HDL-C levels [4] | LDL-C levels [4] | triglyceride levels [4]
CC(C)c1c(C(=O)Nc2ccccc2)c(-c2ccccc2)c(-c2ccc(F)cc2)n1CC[C@@H](O)C[C@@H](O)CC(=O)O [atorvastatin] | significantly decreased | significantly decreased | significantly increased | significantly decreased | significantly decreased | – | – | – | – | –
CC[C@H](C)C(=O)O[C@H]1C[C@@H](C)C=C2C=C[C@H](C)[C@H](CC[C@@H]3C[C@@H](O)CC(=O)O3)[C@H]21 [lovastatin] | – | – | – | – | – | significantly reduced | significantly reduced | significant increases | significant decreases | significant decreases
